Reference: patent publication US6103700A, “Fluoro labelled anthracyclinone and anthracycline derivatives” (Pharmacia & Upjohn S.p.A., priority 1996, dated 2000)

Columns and labels:
Aβ25-35 fibrils = Aβ25-35 fibrils (Homo sapiens, UniProt P05067); assay: Binding of anthracyclinones and anthracyclines to Aβ25-35 fibrils (fluorescent detection of bound compound); settings: 10% dimethylsulfoxide in distilled water, 60 minutes, room temperature, rectangular hyperbola (binding isotherm), read-out: EC50 (affinity of the test compounds for the Aβ fibrils)
Method: Binding of anthracyclinones and anthracyclines to Aβ fibrils
Fibrils from Aβ25-35 peptide are suspended in a solution of 10% dimethylsulfoxide in distilled water containing the test compound at various concentrations and incubated at room temperature for 60 minutes. After incubation, the samples are centrifuged at 15000 g for 10 minutes at room temperature and the supernatant withdrawn. Fibril pellets are washed three times with 0.3 ml of 10% DMSO in distilled water, dissolved in ethanol and the bound compound is quantified by fluorescent detection. EC50 are then calculated using rectangular hyperbola (binding isotherm) equation and represents the affinity of the test compounds for the Aβ fibrils.

Aβ1-40 fibrils = assay: Binding to Aβ1-40 fibrils (filtration, HPLC quantification of bound compound); settings: 3% dimethylsulfoxide in water, 15 minutes, room temperature, Hill equation
Method: The precipitated fibrils are centrifuged, washed with distilled water, centrifuged again and resuspended in distilled water at a concentration of […]. The fibril suspension is sonocated for one minute and freezed at -20° C. in aliquots until use. […] The resulting suspension is incubated at room temperature for 15 minutes. After incubation, the suspension is loaded onto a Millipore ultrafree MC filter (0.22 μm pore retention) and centrifuged for 5 minutes at 4° C. […] The amount of bound compound is quantified by HPLC. The aspecific binding of the compounds to the filter is evaluated by processing samples of the compounds, as previously described, in the absence of fibrils. The amount of compound bound to the filter is subtracted from the total binding value obtained in the presence of fibrils. Binding parameters were estimated by computerised non-linear regression analysis according to the Hill equation. Data are expressed as nanomoles of compound bound per mg of peptide monomer (Bmax)

Aβ25-35 peptide = Aβ25-35 peptide (Homo sapiens, UniProt P05067); assay: Antifibrillogenic activity, thioflavine T (ThT) assay with Aβ25-35 peptide; format: biochemical; settings: compound 30 μM, Aβ25-35 peptide 100 μM, 50 μM phosphate buffer pH 5, 25° C., 24 hours; ThT 47 μM; ex 420 nm, em 490 nm; less fluorescence = less amyloid; read-out: ThT fluorescence (% of control)
Method: The compounds of the present invention are also endowed with antifibrillogenic activity. When Aβ peptides are incubated with the compounds, a reduction in the formation of amyloid fibrils is observed. The amount of amyloid that results from peptide aggregation can be evaluated using the thioflavine T (ThT) assay as reported in the literature by Naiki et al., Analytical Biochemistry 1989, vol. 177, p. 244 and by H. LeVine III, Protein Science 1993, vol.2, p. 404. Compounds are incubated at a concentration of 30 μM, in 50 μM phosphate buffer pH 5 at 25° C. during 24 hours, with 100 μM peptide. The incubated samples are then diluted with sodium citrate buffer pH 5 containing 47 μM ThT. Fluorescence was measured with excitation at 420 nm and emission at 490 nm in a Kontron fluorescence spectrophotometer and the values were averaged after subtracting the background fluorescence of ThT. The less the fluorescence the less the amount of amyloid formed during the incubation period.
The following data obtained with the Aβ25-35 peptide are reported as examples.

Structure (SMILES)	EC50 (Aβ25-35 fibrils) [µM]	Bmax (nanomoles of compound bound per mg of peptide monomer) (Aβ1-40 fibrils) [nmoles/mg Aβ1-40]	remaining activity at 30 µM (Aβ25-35 peptide) [%]
COc1cccc2c1C(=O)c1c(O)c3c(c(O)c1C2=O)C[C@@](O)(C(=O)CN1CCN(S(=O)(=O)C(F)(F)F)CC1)C[C@@H]3O [Compound A3, 14-(4-trifluoromethanesulphonylpiperazin-1-yl)-daunomycinone]	8.16 ± 1.32		23
COc1cccc2c1C(=O)c1c(O)c3c(c(O)c1C2=O)C[C@@](O)(C(=O)CO)C[C@@H]3O[C@H]1C[C@H](NC(=O)C(F)(F)F)[C@H](I)[C@H](C)O1 [Compound A1, N-trifluoroacetyl-4'-iododoxorubicin]			20.6
CCN(CC(=O)[C@]1(O)Cc2c(O)c3c(c(O)c2[C@@H](O)C1)C(=O)c1c(OC)cccc1C3=O)Cc1cc(C(F)(F)F)cc(C(F)(F)F)c1 [Compound A5, 14-[N-ethyl-N-(3,5-bis-trifluoromethylphenyl)methyl]daunomycinone]		223.1	23.1
COc1cccc2c1C(=O)c1c(O)c3c(c(O)c1C2=O)C[C@@](O)(C(=O)CN1CCN(c2cccc(C(F)(F)F)c2)CC1)C[C@@H]3O [Compound A4, 14-[4-(3-trifluoromethylphenyl)piperazin-1-yl]-daunomycinone]			22.3
COc1cccc2c1C(=O)c1c(O)c3c(c(O)c1C2=O)C[C@@](O)(C(=O)CN1CCN(C(=O)C(F)(F)F)CC1)C[C@@H]3O [Compound A2, 14-(4-trifluoroacetylpiperazin-1-yl)-daunomycinone]			22.2

More lines, now with the values ahead:

EC50 (Aβ25-35 fibrils) [µM]	Bmax (nanomoles of compound bound per mg of peptide monomer) (Aβ1-40 fibrils) [nmoles/mg Aβ1-40]	remaining activity at 30 µM (Aβ25-35 peptide) [%]	Structure (SMILES)
52 ± 10.7	122.2	41	COc1cccc2c1C(=O)c1c(O)c3c(c(O)c1C2=O)C[C@@](O)(C(=O)CO)C[C@@H]3O[C@H]1C[C@H](N)[C@H](I)[C@H](C)O1 [IDOX, iododoxorubicin, reference compound]
		35	COc1cccc2c1C(=O)c1c(O)c3c(c(O)c1C2=O)C[C@@](O)(C(=O)CN(Cc1ccccc1)CC(F)(F)F)C[C@@H]3O [Compound A6, 14-[N-benzyl-N-(2,2,2-trifluoroethyl)]amino-daunomycinone]
		33.2	COc1cccc2c1C(=O)c1c(O)c3c(c(O)c1C2=O)C[C@@](O)(C(=O)CN1CC=CCC1)C[C@@H]3O[C@H]1C[C@H](NC(=O)C(F)(F)F)[C@H](I)[C@H](C)O1 [Compound A7, 14-(1,2,3,6-tetrahydropyridin-1-yl)-4'-deoxy-4'-iodo-3'-N-trifluoroacetyl daunorubicin]
